From patent publication US20140357713A1, “ANTIMICROBIAL COMPOUNDS AND METHODS OF USE” (NexMed Holdings, Inc., priority 2012, published 2014)
Where two headings read alike, the source gives them in different places.

Experiments:
Assay in all cases: MIC assay with different strains, Example 35
Type in all cases: cell-based
[1] = tested on: Staphylococcus saprophyticus (ATCC 15305)
Procedure: (§1) The minimum inhibitory concentration (MIC) is used to determine the lowest concentration of a test product claiming antimicrobial effects that will inhibit growth of a microorganism. Each microbial suspension was adjusted approximately 10^7 to 10^8 colony forming units (CFU) per mL and labeled as the stock suspension. The stock suspension was further diluted to 1:200 in Mueller Hinton broth to obtain a test sample having a concentration of […]. The test sample was then tested for MIC as described in M202.R02. After incubation, each tube was examined for turbidity, which indicated growth or no growth. For the tubes where the product rendered the media turbid, an aliquot of the media was streaked onto agar plates to confirm growth or lack of growth.

[2] = tested on: Staphylococcus hominis (ATCC 27844)
Procedure: as §1

[3] = tested on: Enterobacter aerogenes (ATCC 13048)
Procedure: as §1

[4] = tested on: Acinetobacter iwoffi (ATCC 15309)
Procedure: as §1

[5] = tested on: Staphylococcus epidermidis (ATCC 12228)
Procedure: as §1

[6] = tested on: Bacillus subtilis (ATCC 6633)
Procedure: as §1

[7] = tested on: Candida albicans (ATCC 10231)
Procedure: as §1

[8] = tested on: Escherichia coli (ATCC 11229)
Procedure: as §1

[9] = tested on: Corynebacterium jeikeium (ATCC 43734)
Procedure: as §1

Q: Which Growth/no growth ([1]; Sample Concentration 0.32%) does the source give for `CCCCCCCCCCCCOC(=O)C(C)NC.Cl` (centres unmarked) [Nex-59, Dodecyl 2-(methylamino)propanoate hydrochloride] here?
A: No

Q: What about the Growth/no growth ([1]; Sample Concentration 0.63%) of the same molecule?
A: No

Q: And the Growth/no growth ([1]; Sample Concentration 1.25%)?
A: No

Q: What about the Growth/no growth ([1]; Sample Concentration 2.5%) of the same molecule?
A: No

Q: And the MIC ([1]; Staphylococcus saprophyticus, ATCC15305, Table 19 summary, read-out: MIC)?
A: 200 µg/mL

Q: And the MIC ([2]; Example 35)?
A: 0.02%

Q: And the Growth/no growth ([2]; Sample Concentration 0.01%)?
A: Growth

Q: And the Growth/no growth ([2]; Sample Concentration 0.02%)?
A: No

Q: What about the Growth/no growth ([2]; Sample Concentration 0.04%) of the same molecule?
A: No

Q: What about the Growth/no growth ([2]; Sample Concentration 0.08%) of the same molecule?
A: No

Q: What about the Growth/no growth ([2]; Sample Concentration 0.16%) of the same molecule?
A: No

Q: What about the Growth/no growth ([2]; Sample Concentration 0.32%) of the same molecule?
A: No

Q: And the Growth/no growth ([2]; Sample Concentration 0.63%)?
A: No

Q: And the Growth/no growth ([2]; Sample Concentration 1.25%)?
A: No

Q: What about the Growth/no growth ([2]; Sample Concentration 2.5%) of the same molecule?
A: No

Q: What about the MIC ([2]; Staphylococcus hominis, ATCC27844, Table 19 summary, read-out: MIC) of the same molecule?
A: 200 µg/mL

Q: And the MIC ([3]; Example 35)?
A: 0.16%

Q: And the MIC ([3]; Klebsiella aerogenes, ATCC13048, Table 19 summary, read-out: MIC)?
A: 1600 µg/mL

Q: And the Growth/no growth ([3]; Sample Concentration 0.01%)?
A: Growth

Q: What about the Growth/no growth ([3]; Sample Concentration 0.02%) of the same molecule?
A: Growth

Q: What about the Growth/no growth ([3]; Sample Concentration 0.04%) of the same molecule?
A: Growth

Q: And the Growth/no growth ([3]; Sample Concentration 0.08%)?
A: Growth

Q: What about the Growth/no growth ([3]; Sample Concentration 0.16%) of the same molecule?
A: No

Q: And the Growth/no growth ([3]; Sample Concentration 0.32%)?
A: No

Q: And the Growth/no growth ([3]; Sample Concentration 0.63%)?
A: No

Q: And the Growth/no growth ([3]; Sample Concentration 1.25%)?
A: No

Q: What about the Growth/no growth ([3]; Sample Concentration 2.5%) of the same molecule?
A: No

Q: What about the MIC ([4]; Acinetobacter, ATCC15309, Table 19 summary, read-out: MIC) of the same molecule?
A: 200 µg/mL

Q: What about the MIC ([4]; Example 35) of the same molecule?
A: 0.02%

Q: What about the Growth/no growth ([4]; Sample Concentration 0.01%) of the same molecule?
A: Growth

Q: What about the MIC ([5]; Example 35) of the same molecule?
A: 0.02%

Q: And the Growth/no growth ([5]; Sample Concentration 0.01%)?
A: Growth

Q: What about the Growth/no growth ([5]; Sample Concentration 0.02%) of the same molecule?
A: No

Q: What about the Growth/no growth ([5]; Sample Concentration 0.04%) of the same molecule?
A: No

Q: What about the Growth/no growth ([5]; Sample Concentration 0.08%) of the same molecule?
A: No

Q: And the Growth/no growth ([5]; Sample Concentration 0.16%)?
A: No

Q: And the Growth/no growth ([5]; Sample Concentration 0.32%)?
A: No

Q: And the Growth/no growth ([5]; Sample Concentration 0.63%)?
A: No

Q: And the Growth/no growth ([5]; Sample Concentration 1.25%)?
A: No

Q: And the Growth/no growth ([5]; Sample Concentration 2.5%)?
A: No

Q: What about the MIC ([5]; Staphylococcus epidermidis, ATCC12228, Table 19 summary, read-out: MIC) of the same molecule?
A: 200 µg/mL

Q: And the MIC ([6]; Bacillus subtilis, ATCC6633, Table 19 summary, read-out: MIC)?
A: 400 µg/mL

Q: What about the MIC ([6]; Example 35) of the same molecule?
A: 0.04%

Q: And the Growth/no growth ([6]; Sample Concentration 0.01%)?
A: Growth

Q: And the Growth/no growth ([6]; Sample Concentration 0.02%)?
A: Growth

Q: What about the MIC ([7]; Candida albicans, ATCC10231, Table 19 summary, read-out: MIC) of the same molecule?
A: 400 µg/mL

Q: What about the MIC ([7]; Example 35) of the same molecule?
A: 0.04%

Q: And the Growth/no growth ([7]; Sample Concentration 0.01%)?
A: Growth

Q: What about the Growth/no growth ([7]; Sample Concentration 0.02%) of the same molecule?
A: Growth

Q: What about the MIC ([8]; Escherichia coli, ATCC11229, Table 19 summary, read-out: MIC) of the same molecule?
A: 800 µg/mL

Q: What about the MIC ([8]; Example 35) of the same molecule?
A: 0.08%

Q: What about the Growth/no growth ([8]; Sample Concentration 0.01%) of the same molecule?
A: Growth

Q: And the Growth/no growth ([8]; Sample Concentration 0.02%)?
A: Growth

Q: And the Growth/no growth ([8]; Sample Concentration 0.04%)?
A: Growth

Q: And the MIC ([9]; Corynebacterium jeikeium, ATCC43734, Table 19 summary, read-out: MIC)?
A: ≥ 100 µg/mL

Q: What about the MIC ([9]; Example 35) of the same molecule?
A: ≦0.01%

Q: What about the Growth/no growth ([9]; Sample Concentration 0.01%) of the same molecule?
A: No

Q: What about the Growth/no growth ([9]; Sample Concentration 0.02%) of the same molecule?
A: No

Q: And the Growth/no growth ([9]; Sample Concentration 0.04%)?
A: No

Q: What about the Growth/no growth ([9]; Sample Concentration 0.08%) of the same molecule?
A: No

Q: What about the Growth/no growth ([9]; Sample Concentration 0.16%) of the same molecule?
A: No

Q: What about the Growth/no growth ([9]; Sample Concentration 0.32%) of the same molecule?
A: No

Q: What about the Growth/no growth ([9]; Sample Concentration 0.63%) of the same molecule?
A: No

Q: And the Growth/no growth ([9]; Sample Concentration 1.25%)?
A: No

Q: And the Growth/no growth ([9]; Sample Concentration 2.5%)?
A: No
